Experiment [1] concerns synthesis of LTB4 in human whole blood. Kind of experiment: human whole blood LTB4 production inhibition assay. The following applies: calcimycin stimulated, read-out: hWB LTB4 IC50. In kind it is cell-based. The method in brief:
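LTB4 in plasma was quantified by HTRF immunoassay. Before that, compound-treated heparinized whole blood (15 min, 37 °C) received 20 μM final calcimycin for a further 30 min at 37 °C, followed by centrifugation at 1500×g.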

Experiment [2] has as its target T1, recombinant human FLAP protein (Homo sapiens, UniProt P20292).
T1 construct: made in house; host or cells: Sf9 insect cells (100,000xg membrane fraction used)
T1 sequence (P20292 1-161): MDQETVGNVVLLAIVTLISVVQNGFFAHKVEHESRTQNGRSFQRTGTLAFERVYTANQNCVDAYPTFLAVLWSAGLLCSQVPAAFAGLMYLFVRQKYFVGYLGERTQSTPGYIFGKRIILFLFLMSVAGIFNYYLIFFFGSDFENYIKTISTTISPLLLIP
Kind of experiment: FLAP binding assay (Scintillation Proximity Assay, displacement of [125I]L-691,831). The conditions noted are these: read-out: FLAP SPA IC50. The method in brief:
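Scintillation proximity displacement of [125I]L-691,831 (0.08 nM) from membranes of sf9 cells expressing recombinant human FLAP (5 μg/well) on WGA SPA beads, pH 7.5 Tris buffer. Plates shaken 2 h before counting. Non-specific binding defined with 10 μM unlabelled L-691,831.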
In general terms: In a scintillation proximity assay essentially only radioactivity close to the scintillant gives light.

SMILES strings stand for the structures.

In general, IC50 refers to the concentration that inhibits the measured activity by half. For `CO[C@@H]1CCN(C(=O)Cn2cc(-c3nc([C@@](C)(c4ccc(-c5cnc(N)nc5)nc4)C4CC4)no3)cn2)C1` [Example 107, 2-[4-(3-{(R)-1-[6-(2-Amino-pyrimidin-5-yl)-pyridin-3-yl]-1-cyclopropyl-ethyl}-[1,2,4]oxadiazol-5-yl)-pyrazol-1-yl]-1-((R)-3-methoxy-pyrrolidin-1-yl)-ethanone], the IC50 was found to be 220 nM in experiment [1] and 72 nM in experiment [2].

Consider `COCCn1cc(-c2nc([C@](C)(c3ccc(-c4ccc(N)nc4)nc3)C3CC3)no2)cn1` [Example 108, 5-((S)-1-Cyclopropyl-1-{5-[1-(2-methoxy-ethyl)-1H-pyrazol-4-yl]-[1,2,4]oxadiazol-3-yl}-ethyl)-[2,3′]bipyridinyl-6′-ylamine], for which the IC50 in experiment [1] was 2300 nM; in experiment [2] it was 360 nM.

For `CC(C)(O)Cn1cc(-c2nc([C@](C)(c3ccc(-c4ccc(N)nc4)nc3)C3CC3)no2)cn1` [Example 109, 1-(4-{3-[(S)-1-(6′-Amino-[2,3′]bipyridinyl-5-yl)-1-cyclopropyl-ethyl]-[1,2,4]oxadiazol-5-yl}-pyrazol-1-yl)-2-methyl-propan-2-ol], the IC50 in experiment [1] is 1100 nM; in experiment [2], 350 nM.

On to `CC(C)[C@](C)(c1ccc(-c2cnc(N)cn2)nc1)c1noc(-c2cnn(CC(C)(C)O)c2)n1` [Example 110, 1-[4-(3-{(R)-1-[6-(5-Amino-pyrazin-2-yl)-pyridin-3-yl]-1,2-dimethyl-propyl}-[1,2,4]oxadiazol-5-yl)-pyrazol-1-yl]-2-methyl-propan-2-ol], for which the IC50 in experiment [1] turned out to be 31 nM; in experiment [2] it was 5.9 nM.

Take `CC(C)[C@](C)(c1ccc(-c2cnc(N)cn2)nc1)c1noc(-c2cnn(CC(=O)N(C)C)c2)n1` [Example 112, 2-[4-(3-{(R)-[6-(5-Amino-pyrazin-2-yl)-pyridin-3-yl]-1,2-dimethyl-propyl}-[1,2,4]oxadiazol-5-yl)-pyrazol-1-yl]-N,N-dimethyl-acetamide]: the IC50 in experiment [1] was 71 nM; in experiment [2], 4.8 nM.

Regarding `CC(C)[C@](C)(c1ccc(-c2cnc(N)cn2)nc1)c1noc(-c2cnn(C3COC3)c2)n1` [Example 113, 5-(5-{(R)-1,2-Dimethyl-1-[5-(1-oxetan-3-yl-1H-pyrazol-4-yl)-[1,2,4]oxadiazol-3-yl]-propyl}-pyridin-2-yl)-pyrazin-2-ylamine], the IC50 is 12 nM in experiment [1] and 4 nM in experiment [2].

Take `C[C@@](c1ccc(-c2ccc(N)nc2)nc1)(c1noc(-c2cnn(C(CO)CO)c2)n1)C1CC1` [Example 114, 2-(4-{3-[(R)-1-(6′-Amino-[2,3′]bipyridinyl-5-yl)-1-cyclopropyl-ethyl]-[1,2,4]oxadiazol-5-yl}-pyrazol-1-yl)-propane-1,3-diol]: the IC50 in experiment [1] was determined as 850 nM; in experiment [2], 52 nM.

`C[C@@](c1ccc(-c2ccc(N)nc2)nc1)(c1noc(-c2cnn(C3COC3)c2)n1)C1CC1` [Example 115, 5-{(R)-1-Cyclopropyl-1-[5-(1-oxetan-3-yl-1H-pyrazol-4-yl)-[1,2,4]oxadiazol-3-yl]-ethyl}-[2,3′]bipyridinyl-6′-ylamine]: the values for the IC50 in experiment [1] and in experiment [2] were 110 nM and 24 nM, respectively.

For `C[C@](c1ccc(-c2ccc(N)nc2)nc1)(c1noc(-c2cnn(C3COC3)c2)n1)C1CC1` [Example 116, 5-{(S)-1-Cyclopropyl-1-[5-(1-oxetan-3-yl-1H-pyrazol-4-yl)-[1,2,4]oxadiazol-3-yl]-ethyl}-[2,3′]bipyridinyl-6′-ylamine], the IC50 in experiment [1] came to 2000 nM; in experiment [2] it was 360 nM.

Regarding `C[C@@](c1ccc(-c2cnc(N)nc2)nc1)(c1noc(-c2cn[nH]c2)n1)C1CC1` [Example 117, 5-(5-{(R)-1-Cyclopropyl-1-[5-(1H-pyrazol-4-yl)-[1,2,4]oxadiazol-3-yl]-ethyl}-pyridin-2-yl)-pyrimidin-2-ylamine], the IC50 worked out at 86 nM in experiment [1] and 8.7 nM in experiment [2].

Regarding `Cn1cc(-c2nc(C(C)(c3ccc(-c4ccc(N)nc4)nc3)C3CC3)no2)cn1` (stereo not drawn) [Example 118, 5-{1-Cyclopropyl-1-[5-(1-methyl-1H-pyrazol-4-yl)-[1,2,4]oxadiazol-3-yl]-ethyl}-[2,3′]bipyridinyl-6′-ylamine], the IC50 in experiment [1] was determined as 210 nM; in experiment [2], 47 nM.

Turning to `CC(C)[C@](C)(c1ccc(-c2cnc(N)[nH]c2=O)nc1)c1noc(-c2cnn(CC(C)(C)O)c2)n1` [Example 119, 2-Amino-5-[5-((R)-1-{5-[1-(2-hydroxy-2-methyl-propyl)-1H-pyrazol-4-yl]-[1,2,4]oxadiazol-3-yl}-1,2-dimethyl-propyl)-pyridin-2-yl]-3H-pyrimidin-4-one], the IC50 in experiment [1] came to 2200 nM; in experiment [2], 3.4 nM.

Turning to `CN(C)CCn1cc(-c2nc(C(C)(c3ccc(-c4ccc(N)nc4)nc3)C3CC3)no2)cn1` (stereo not drawn) [Example 120, 5-(1-Cyclopropyl-1-{5-[1-(2-dimethylamino-ethyl)-1H-pyrazol-4-yl]-[1,2,4]oxadiazol-3-yl}-ethyl)-[2,3′]bipyridinyl-6′-ylamine], the figures for the 50% inhibitory concentration (IC50) in experiment [1] and in experiment [2] were 300 nM and 42 nM, respectively.

As for `CO[C@H]1CCN(C(=O)Cn2cc(-c3nc([C@@](C)(c4ccc(-c5cnc(N)nc5)nc4)C4CC4)no3)cn2)C1` [Example 121, 2-[4-(3-{(R)-1-[6-(2-Amino-pyrimidin-5-yl)-pyridin-3-yl]-1-cyclopropyl-ethyl}-[1,2,4]oxadiazol-5-yl)-pyrazol-1-yl]-1-((S)-3-methoxy-pyrrolidin-1-yl)-ethanone], the IC50 worked out at 220 nM in experiment [1] and 67 nM in experiment [2].

For `CN(C)C(=O)Cn1cc(-c2nc([C@@](C)(c3ccc(-c4cnc(N)cn4)nc3)C3CC3)no2)cn1` [Example 122, 2-[4-(3-{(R)-1-[6-(5-Amino-pyrazin-2-yl)-pyridin-3-yl]-1-cyclopropyl-ethyl}-[1,2,4]oxadiazol-5-yl)-pyrazol-1-yl]-N,N-dimethyl-acetamide], the IC50 in experiment [1] was found to be 450 nM; in experiment [2], 34 nM.

Consider `CN(C)C(=O)Cn1cc(-c2nc([C@](C)(c3ccc(-c4cnc(N)cn4)nc3)C3CC3)no2)cn1` [Example 123, 2-[4-(3-{(S)-1-[6-(5-Amino-pyrazin-2-yl)-pyridin-3-yl]-1-cyclopropyl-ethyl}-[1,2,4]oxadiazol-5-yl)-pyrazol-1-yl]-N,N-dimethyl-acetamide], for which the concentration for half-maximal inhibition (IC50) in experiment [1] was determined as 3300 nM; in experiment [2] it was 300 nM.

Regarding `CN(C)CCn1cc(-c2nc([C@@](C)(c3ccc(-c4cnc(N)cn4)nc3)C3CC3)no2)cn1` [Example 124, 5-[5-((R)-1-Cyclopropyl-1-{5-[1-(2-dimethylamino-ethyl)-1H-pyrazol-4-yl]-[1,2,4]oxadiazol-3-yl}-ethyl)-pyridin-2-yl]-pyrazin-2-ylamine], the IC50 came to 60 nM in experiment [1] and 18 nM in experiment [2].

In the case of `CN(C)CCn1cc(-c2nc([C@](C)(c3ccc(-c4cnc(N)cn4)nc3)C3CC3)no2)cn1` [Example 125, 5-[5-((S)-1-Cyclopropyl-1-{5-[1-(2-dimethylamino-ethyl)-1H-pyrazol-4-yl]-[1,2,4]oxadiazol-3-yl}-ethyl)-pyridin-2-yl]-pyrazin-2-ylamine], the IC50 turned out to be 370 nM in experiment [1] and 120 nM in experiment [2].

Take `COCCn1cc(-c2nc([C@@](C)(c3ccc(-c4cnc(N)cn4)nc3)C3CC3)no2)cn1` [Example 126, 5-[5-((R)-1-Cyclopropyl-1-{5-[1-(2-methoxy-ethyl)-1H-pyrazol-4-yl]-[1,2,4]oxadiazol-3-yl}-ethyl)-pyridin-2-yl]-pyrazin-2-ylamine]: the IC50 in experiment [1] turned out to be 25 nM; in experiment [2] it was 8.8 nM.

As for `COCCn1cc(-c2nc([C@](C)(c3ccc(-c4cnc(N)cn4)nc3)C3CC3)no2)cn1` [Example 127, 5-[5-((S)-1-Cyclopropyl-1-{5-[1-(2-methoxy-ethyl)-1H-pyrazol-4-yl]-[1,2,4]oxadiazol-3-yl}-ethyl)-pyridin-2-yl]-pyrazin-2-ylamine], the IC50 came to 410 nM in experiment [1] and 220 nM in experiment [2].

As for `CC(C)[C@](C)(c1ccc(-c2cnc(N)nc2)nc1)c1noc(-c2cnn(CCS(C)(=O)=O)c2)n1` [Example 128, 5-[5-((R)-1-{5-[1-(2-Methanesulfonyl-ethyl)-1H-pyrazol-4-yl]-[1,2,4]oxadiazol-3-yl}-1,2-dimethyl-propyl)-pyridin-2-yl]-pyrimidin-2-ylamine], the results for the IC50 in experiment [1] and in experiment [2] were 270 nM and 10 nM, respectively.

For `CC(C)[C@](C)(c1ccc(-c2cnc(N)nc2)nc1)c1noc(-c2cnn(CC#N)c2)n1` [Example 129, [4-(3-{(R)-1-[6-(2-Amino-pyrimidin-5-yl)-pyridin-3-yl]-1,2-dimethyl-propyl}-[1,2,4]oxadiazol-5-yl)-pyrazol-1-yl]-acetonitrile], the IC50 in experiment [1] is 19 nM; in experiment [2], 8.1 nM.

With `CNc1cnc(-c2ccc(C(C)(c3noc(-c4cnn(CC(C)(C)O)c4)n3)C3CC3)cn2)cn1` (stereo not drawn) [Example 130, 1-[4-(3-{1-Cyclopropyl-1-[6-(5-methylamino-pyrazin-2-yl)-pyridin-3-yl]-ethyl}-[1,2,4]oxadiazol-5-yl)-pyrazol-1-yl]-2-methyl-propan-2-ol], the IC50 is 94 nM in experiment [1] and 15 nM in experiment [2].

For the compound `CC(C)[C@](C)(c1ccc(-c2ccc(N)nc2)nc1)c1noc(-c2cnn(C3COC3)c2)n1` [Example 131, 5-{(R)-1,2-Dimethyl-1-[5-(1-oxetan-3-yl-1H-pyrazol-4-yl)-[1,2,4]oxadiazol-3-yl]-propyl}-[2,3′]bipyridinyl-6′-ylamine], the values for the IC50 in experiment [1] and in experiment [2] were 39 nM and 5.6 nM, respectively.
